The values that follow come from patent US12139492B2 (Endotarget Inc., priority 2021, dated 2024).

Where two headings read alike, the source gives them in different places. Bounds are passed on as bounds.

The subject of one assay is Mino cells. The assay is described as follows: Antiproliferative effect, MTS cell viability assay, Mino cells. As to conditions: Homo sapiens, MINO, Mino mantle cell lymphoma cells; read-out: IC50 (anti-proliferation) Mino cells. It counts as cell-based. As for the experimental part:
(§1) Antiproliferative effect of the exemplary compounds was assessed in B-cell malignancy models.
(§2) To assess the effect of the exemplary compounds on cell viability in B-cell malignancy models by degradation of BTK protein, Mino and JeKo-1 cells were treated with varying concentrations of Ibrutinib (0, 0.001, 0.01, 0.1, 1, 10 μM). Under these conditions, cell viability was determined by an MTS assay. Cytotoxicity was assayed by the determination of reduced tetrazolium (formazan) created by metabolically active cells as detected at 490 nm absorbance using a microplate reader (BMG Labtech, Cary, NC, USA).
(§3) The exemplary compounds attenuated the viability of Mino and JeKo-1 cells in a concentration-dependent manner at 72 h post treatment. Results are shown in Table 1 for each exemplary compound.
For orientation: Formazan colour is commonly taken as a measure of viable cells.

The next assay relates to JeKo-1 cells. Kind of assay: Antiproliferative effect, MTS cell viability assay, JeKo-1 cells. It counts as cell-based. To be noted: Homo sapiens; JeKo-1 mantle cell lymphoma cells; read-out: IC50 (anti-proliferation) JeKO-1 cells. Here is the method: as §1, §2, §3
The target of the next assay is BTK (Homo sapiens, UniProt Q06187). Kind of assay: Degradation of BTK protein in Namalwa cells (Western blot; DC50, Dmax). As to conditions: for DC50: cell line not given.
[1] abbreviates: read-out: DC50 (BTK degradation), concentration giving 50% reduction of BTK expression level.
[2] abbreviates: read-out: Dmax (BTK degradation).

BTK, sequence (Q06187 whole entry): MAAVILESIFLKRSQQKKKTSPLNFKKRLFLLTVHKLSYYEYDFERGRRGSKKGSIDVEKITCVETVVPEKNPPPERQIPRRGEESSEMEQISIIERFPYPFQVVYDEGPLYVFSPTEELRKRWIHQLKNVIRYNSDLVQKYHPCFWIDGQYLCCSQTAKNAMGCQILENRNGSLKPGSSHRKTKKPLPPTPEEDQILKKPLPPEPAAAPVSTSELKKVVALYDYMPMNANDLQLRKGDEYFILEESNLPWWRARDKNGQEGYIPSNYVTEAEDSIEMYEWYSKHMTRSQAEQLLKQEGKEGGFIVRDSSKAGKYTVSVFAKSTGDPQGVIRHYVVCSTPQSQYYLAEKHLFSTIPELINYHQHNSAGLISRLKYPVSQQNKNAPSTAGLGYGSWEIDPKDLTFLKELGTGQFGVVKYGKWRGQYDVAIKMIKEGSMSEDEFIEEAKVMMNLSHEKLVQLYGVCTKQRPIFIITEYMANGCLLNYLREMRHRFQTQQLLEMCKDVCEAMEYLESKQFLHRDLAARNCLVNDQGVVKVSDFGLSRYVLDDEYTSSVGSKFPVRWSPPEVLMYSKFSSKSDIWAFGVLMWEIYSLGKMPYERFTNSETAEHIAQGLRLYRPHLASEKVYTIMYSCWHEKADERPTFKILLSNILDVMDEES

As for `NC(=O)c1c(-c2ccc(Oc3ccccc3)cc2)nn2c1NCC[C@H]2C1CCN(C(=O)N2CCN(CCN3CCN(c4ccc5c(c4)CN(C4CCC(=O)NC4=O)C5=O)CC3)CC2)CC1` (stereo partly drawn) [Compound 298, (7S)-7-(1-(4-(2-(4-(2-(2,6-dioxopiperidin-3-yl)-1-oxoisoindolin-5-yl)piperazin-1-yl)ethyl)piperazine-1-carbonyl)piperidin-4-yl)-2-(4-phenoxyphenyl)-4,5,6,7-tetrahydropyrazolo[1,5-a]pyrimidine-3-carboxamide], the IC50 in the assay on Mino cells and in the assay on JeKo-1 cells was 1000 to 10000 nM each time. For the same molecule, on BTK, the Dmax (in general, the greatest extent of degradation seen) was greater than 90%. Moreover, on BTK (BTK degradation), the DC50 (as a rule, the midpoint of the concentration-degradation curve) was 10 to 50 nM.

For the molecule `NC(=O)c1c(-c2ccc(Oc3ccccc3)cc2)nn2c1NCC[C@H]2C1CCN(CC2CCN(C(=O)N3CCC(C4CCN(c5ccc6c(c5)C(=O)N(C5CCC(=O)NC5=O)C6=O)CC4)CC3)CC2)CC1` (stereo partly drawn) [Compound 405, (7S)-7-(1-((1-(1′-(2-(2,6-dioxopiperidin-3-yl)-1,3-dioxoisoindolin-5-yl)-[4,4′-bipiperidine]-1-carbonyl)piperidin-4-yl)methyl)piperidin-4-yl)-2-(4-phenoxyphenyl)-4,5,6,7-tetrahydropyrazolo[1,5-a]pyrimidine-3-carboxamide], the IC50 was less than 1000 nM with Mino cells and 1000 to 10000 nM in the assay on JeKo-1 cells. Moreover, the DC50 at BTK (setting [1]) fell in the range of 10 to 50 nM. The Dmax at BTK (setting [2]) was greater than 90%.

`NC(=O)c1c(-c2ccc(Oc3ccccc3)cc2)nn2c1NCC[C@H]2C1CCN(CC2CCN(C(=O)N3CCC(CN4CCC(c5ccc6c(c5)C(=O)N(C5CCC(=O)NC5=O)C6=O)CC4)CC3)CC2)CC1` (stereo partly drawn) [Compound 415, (7S)-7-(1-((1-(4-((4-(2-(2,6-dioxopiperidin-3-yl)-1,3-dioxoisoindolin-5-yl)piperidin-1-yl)methyl)piperidine-1-carbonyl)piperidin-4-yl)methyl)piperidin-4-yl)-2-(4-phenoxyphenyl)-4,5,6,7-tetrahydropyrazolo[1,5-a]pyrimidine-3-carboxamide]: the IC50 in the assay with Mino cells is less than 1000 nM; in the assay on JeKo-1 cells, 1000 to 10000 nM. For the same molecule, on BTK (setting [1]), the DC50 lay within 10 to 50 nM. Besides, at BTK (setting [2]), the Dmax is greater than 75%.

With `NC(=O)c1c(-c2ccc(Oc3ccccc3)cc2)nn2c1NCCC2C1CCN(CC2CCN(C(=O)N3CCC(CN4CCN(c5ccc6c(c5)C(=O)N(C5CCC(=O)NC5=O)C6=O)CC4)CC3)CC2)CC1` (centres unmarked) [Compound 369, 7-(1-((1-(4-((4-(2-(2,6-dioxopiperidin-3-yl)-1,3-dioxoisoindolin-5-yl)piperazin-1-yl)methyl)piperidine-1-carbonyl)piperidin-4-yl)methyl)piperidin-4-yl)-2-(4-phenoxyphenyl)-4,5,6,7-tetrahydropyrazolo[1,5-a]pyrimidine-3-carboxamide], the values for the IC50 in the assay on Mino cells and in the assay with JeKo-1 cells were less than 1000 nM and 1000 to 10000 nM, respectively. This molecule showed a Dmax on BTK greater than 90%. Also, the DC50 on BTK (BTK degradation) was less than 10 nM.

Consider `NC(=O)c1c(-c2ccc(Oc3ccccc3)cc2)nn2c1NCCC2C1CCN(CC2CCN(C(=O)N3CCN(C4CCN(c5ccc6c(c5)CN(C5CCC(=O)NC5=O)C6=O)CC4)CC3)CC2)CC1` (centres unmarked) [Compound 362, 7-(1-((1-(4-(1-(2-(2,6-dioxopiperidin-3-yl)-1-oxoisoindolin-5-yl)piperidin-4-yl)piperazine-1-carbonyl)piperidin-4-yl)methyl)piperidin-4-yl)-2-(4-phenoxyphenyl)-4,5,6,7-tetrahydropyrazolo[1,5-a]pyrimidine-3-carboxamide], for which the IC50 in the assay on Mino cells and with JeKo-1 cells was 1000 to 10000 nM each time. Moreover, the Dmax on BTK is greater than 90%. Also, the DC50 on BTK (BTK degradation) is less than 10 nM.
